Reference: US20250248403A1, “COMPOSITION FOR REDUCING AMOUNT OF REACTIVE OXYGEN” (KANEKA CORPORATION, priority 2022, published 2025)

System: soybeans (Fukuyutaka)
Test: Electron transfer rate (ETR) by PAM fluorometry after foliar spraying and paraquat application
Format: in vivo, soybean
Details: 24 h after paraquat
Excerpt: In FIG. 1 to FIG. 18 related to the examples, the relative value indicated above each bar chart in each drawing means a relative value when T1 in each drawing is 100. When an X % increase (relative to T2) is indicated above each bar chart in each drawing, it means that the value increases by X % relative to the value of T2 in each drawing. When a Y % decrease (relative to T2) is indicated above each bar chart in each drawing, it means that the value decreases by Y % relative to the value of T2 in each drawing.
A 9 cm poly pot was filled with culture soil and seeded with three soybeans (Fukuyutaka).
After seeding, the soybeans were cultivated in an incubator set in a light period (6:00-18:00, temperature 26° C., illuminance 120 μmol/m^2·s) and a dark period (18:00-6:00, temperature 18° C.). After germination, they were thinned to one plant.
After the first true leaf development, in each of the following treatments, foliar spraying of the following liquid (composition for reducing reactive oxygen) was conducted on each plant (application of the composition for reducing reactive oxygen). Twenty-four hours after the foliar spraying, foliar spraying of a paraquat aqueous solution with SILWET L-77 added to make a 1,000-fold dilution was conducted on each plant, except for a Control (T1) (paraquat application).
Electron transfer rate (ETR) was measured by pulse amplitude modulated fluorometry (PAM fluorometry) twenty-four hours after the paraquat application. In addition, twenty-four hours after the paraquat application, a SPAD value was measured using a chlorophyll meter.
After the first true leaf development, in each of the following treatments, foliar spraying of the following liquid (composition for reducing reactive oxygen) was conducted on each plant (application of the composition for reducing reactive oxygen). Twenty-four hours after the foliar spraying, foliar spraying of a paraquat aqueous solution with SILWET L-77 added to make a 1,000-fold dilution was conducted on each plant, except for the Control (T1) (paraquat application).
ETR was measured by the PAM fluorometry twenty-four hours after the paraquat application. In addition, twenty-four hours after the paraquat application, a SPAD value was measured using a chlorophyll meter.
After seeding, the soybeans were cultivated in an incubator set in a light period (6:00-18:00, temperature 26° C., illuminance 120 μmol/m^2·s)

Row | Substance | ETR compared with T2 (Experimental Example 4, T3: SL diluted 1000 times, PAR 1496) | ETR compared with T2 (Experimental Example 3, T3: SF diluted 10000 times, PAR 1496) | ETR compared with T2 (Experimental Example 6, T3: SF diluted 10000 times, PAR 1496) | ETR compared with T2 (Experimental Example 9, T3: SF diluted 2000 times, PAR 1455)
1 | sophorolipid [SL] | slightly increased |  |  | 
2 | surfactin Na [SF] |  | slightly increased | slightly increased | significantly increased
